Experimental data published in the NIST ThermoML archive (doi:10.1016/j.fluid.2004.09.013).
Numbers after ± are expanded uncertainties.

Conditions: for mass density: Fluid (supercritical or subcritical phases), Vibrating tube method; for vapor or sublimation pressure: Liquid

Structure (SMILES): C=C(C)C [2-methylpropene]
- mass density (388.24 K, 14986 kPa): 509.22 ± 1.1 kg/m3
- mass density (388.24 K, 19997 kPa): 523.66 ± 1.2 kg/m3
- mass density (388.24 K, 25009 kPa): 535.55 ± 1.2 kg/m3
- mass density (388.24 K, 29994 kPa): 545.71 ± 1.3 kg/m3
- mass density (388.24 K, 35003 kPa): 554.67 ± 1.3 kg/m3
- mass density (393.24 K, 3122 kPa): 430.77 ± 0.92 kg/m3
- mass density (393.24 K, 4982 kPa): 451.26 ± 0.96 kg/m3
- mass density (393.24 K, 9992 kPa): 482.81 ± 1 kg/m3
- mass density (393.24 K, 14983 kPa): 502.79 ± 1.1 kg/m3
- mass density (393.24 K, 20002 kPa): 518.03 ± 1.2 kg/m3
- mass density (393.24 K, 25003 kPa): 530.42 ± 1.2 kg/m3
- mass density (393.24 K, 29986 kPa): 540.94 ± 1.3 kg/m3
- mass density (393.24 K, 34999 kPa): 550.22 ± 1.3 kg/m3
- vapor or sublimation pressure (393.36 K): 2656.5 ± 9.8 kPa
- mass density (398.24 K, 3358 kPa): 417.5 ± 0.9 kg/m3
- mass density (398.24 K, 4991 kPa): 439.31 ± 0.93 kg/m3
- mass density (398.24 K, 10000 kPa): 474.88 ± 1 kg/m3
- mass density (398.24 K, 15001 kPa): 496.33 ± 1.1 kg/m3
- mass density (398.24 K, 19996 kPa): 512.31 ± 1.2 kg/m3
- mass density (398.24 K, 24996 kPa): 525.25 ± 1.2 kg/m3
- mass density (398.24 K, 30012 kPa): 536.21 ± 1.3 kg/m3
- mass density (398.24 K, 35008 kPa): 545.78 ± 1.3 kg/m3
- vapor or sublimation pressure (399.86 K): 2967.1 ± 11 kPa
- mass density (403.24 K, 3596 kPa): 402.69 ± 0.89 kg/m3
- mass density (403.24 K, 4988 kPa): 426.04 ± 0.91 kg/m3
- mass density (403.24 K, 14999 kPa): 489.7 ± 1.1 kg/m3
- mass density (403.24 K, 19992 kPa): 506.53 ± 1.2 kg/m3
- mass density (403.24 K, 24997 kPa): 520.05 ± 1.2 kg/m3
- mass density (403.24 K, 30004 kPa): 531.43 ± 1.3 kg/m3
- mass density (403.24 K, 34985 kPa): 541.26 ± 1.3 kg/m3
- mass density (403.25 K, 9993 kPa): 466.62 ± 1 kg/m3
- mass density (408.24 K, 3850 kPa): 386.28 ± 0.89 kg/m3
- mass density (408.24 K, 4991 kPa): 411.13 ± 0.92 kg/m3
- mass density (408.24 K, 14992 kPa): 482.94 ± 1.1 kg/m3
- mass density (408.24 K, 19999 kPa): 500.74 ± 1.1 kg/m3
- mass density (408.24 K, 24999 kPa): 514.84 ± 1.2 kg/m3
- mass density (408.24 K, 30000 kPa): 526.63 ± 1.3 kg/m3
- mass density (408.25 K, 9982 kPa): 458.05 ± 0.99 kg/m3
- mass density (408.25 K, 34995 kPa): 536.8 ± 1.3 kg/m3
- vapor or sublimation pressure (412.88 K): 3665.8 ± 13 kPa
- mass density (413.24 K, 4118 kPa): 367.6 ± 0.91 kg/m3
- mass density (413.24 K, 30005 kPa): 521.83 ± 1.3 kg/m3
- mass density (413.24 K, 35003 kPa): 532.34 ± 1.3 kg/m3
- mass density (413.25 K, 4983 kPa): 393.59 ± 0.92 kg/m3
- mass density (413.25 K, 9996 kPa): 449.33 ± 0.98 kg/m3
- mass density (413.25 K, 14993 kPa): 476.09 ± 1.1 kg/m3
- mass density (413.25 K, 19996 kPa): 494.87 ± 1.1 kg/m3
- mass density (413.25 K, 24999 kPa): 509.59 ± 1.2 kg/m3
- mass density (418.24 K, 4397 kPa): 346.27 ± 1.1 kg/m3
- mass density (418.24 K, 4989 kPa): 372.46 ± 0.97 kg/m3
- mass density (418.24 K, 14988 kPa): 469.1 ± 1 kg/m3
- mass density (418.24 K, 19991 kPa): 488.93 ± 1.1 kg/m3
- mass density (418.24 K, 24993 kPa): 504.3 ± 1.2 kg/m3
- mass density (418.25 K, 9999 kPa): 440.27 ± 0.96 kg/m3
- mass density (418.25 K, 30007 kPa): 517.01 ± 1.3 kg/m3
- mass density (418.25 K, 34986 kPa): 527.81 ± 1.3 kg/m3
- mass density (423.24 K, 5018 kPa): 345.72 ± 0.87 kg/m3
- mass density (423.24 K, 19992 kPa): 482.96 ± 1.1 kg/m3
- mass density (423.24 K, 30010 kPa): 512.18 ± 1.3 kg/m3
- mass density (423.25 K, 9984 kPa): 430.4 ± 0.94 kg/m3
- mass density (423.25 K, 14989 kPa): 462 ± 1 kg/m3
- mass density (423.25 K, 25000 kPa): 499.02 ± 1.2 kg/m3
- mass density (423.25 K, 34992 kPa): 523.34 ± 1.3 kg/m3
- mass density (423.25 K, 39996 kPa): 533.35 ± 1.4 kg/m3
- mass density (428.24 K, 5018 kPa): 303.01 ± 0.98 kg/m3
- mass density (428.24 K, 24987 kPa): 493.65 ± 1.2 kg/m3
- mass density (428.24 K, 34996 kPa): 518.85 ± 1.3 kg/m3
- mass density (428.25 K, 9990 kPa): 420.58 ± 0.93 kg/m3
- mass density (428.25 K, 14983 kPa): 454.76 ± 1 kg/m3
- mass density (428.25 K, 19986 kPa): 476.9 ± 1.1 kg/m3
- mass density (428.25 K, 30000 kPa): 507.31 ± 1.2 kg/m3
- mass density (433.24 K, 5019 kPa): 233.56 ± 0.96 kg/m3
- mass density (433.25 K, 9991 kPa): 410.25 ± 0.93 kg/m3
- mass density (433.25 K, 14996 kPa): 447.46 ± 1 kg/m3
- mass density (433.25 K, 19984 kPa): 470.79 ± 1.1 kg/m3
- mass density (433.25 K, 24991 kPa): 488.3 ± 1.2 kg/m3
- mass density (433.25 K, 30001 kPa): 502.44 ± 1.2 kg/m3
- mass density (433.25 K, 34994 kPa): 514.34 ± 1.3 kg/m3
- mass density (438.25 K, 5019 kPa): 183.56 ± 0.78 kg/m3
- mass density (438.25 K, 9997 kPa): 399.54 ± 0.92 kg/m3
- mass density (438.25 K, 14998 kPa): 440.02 ± 0.98 kg/m3
- mass density (438.25 K, 19984 kPa): 464.66 ± 1.1 kg/m3
- mass density (438.25 K, 24988 kPa): 482.93 ± 1.2 kg/m3
- mass density (438.25 K, 30000 kPa): 497.59 ± 1.2 kg/m3
- mass density (438.25 K, 34992 kPa): 509.86 ± 1.3 kg/m3
- mass density (443.25 K, 5019 kPa): 159.03 ± 0.68 kg/m3
- mass density (443.25 K, 9994 kPa): 388.26 ± 0.91 kg/m3
- mass density (443.25 K, 14989 kPa): 432.39 ± 0.97 kg/m3
- mass density (443.25 K, 20002 kPa): 458.54 ± 1.1 kg/m3
- mass density (443.25 K, 24984 kPa): 477.51 ± 1.1 kg/m3
- mass density (443.25 K, 29996 kPa): 492.7 ± 1.2 kg/m3
- mass density (443.25 K, 34994 kPa): 505.36 ± 1.3 kg/m3
- mass density (448.25 K, 5018 kPa): 144.08 ± 0.66 kg/m3
- mass density (448.25 K, 9996 kPa): 376.53 ± 0.89 kg/m3
- mass density (448.25 K, 14997 kPa): 424.77 ± 0.95 kg/m3
- mass density (448.25 K, 19999 kPa): 452.29 ± 1.1 kg/m3
- mass density (448.25 K, 24998 kPa): 472.14 ± 1.1 kg/m3
- mass density (448.25 K, 29994 kPa): 487.82 ± 1.2 kg/m3
- mass density (448.25 K, 35009 kPa): 500.91 ± 1.3 kg/m3
- mass density (453.25 K, 5016 kPa): 133.47 ± 0.64 kg/m3
- mass density (453.25 K, 9986 kPa): 364.19 ± 0.87 kg/m3
- mass density (453.25 K, 14989 kPa): 416.85 ± 0.94 kg/m3
- mass density (453.25 K, 19999 kPa): 446.01 ± 1 kg/m3
- mass density (453.25 K, 25000 kPa): 466.69 ± 1.1 kg/m3
- mass density (453.25 K, 29993 kPa): 482.93 ± 1.2 kg/m3
- mass density (453.25 K, 35004 kPa): 496.39 ± 1.3 kg/m3
